This passage reports MIC results from ChEMBL document CHEMBL1649457, “Antibiotic susceptibility of Waddlia chondrophila in Acanthamoeba castellanii amoebae” (2009).

Broadly, the MIC is the lowest concentration that inhibits growth of the organism. Higher therefore signals a less susceptible organism.

The test system of assay [1] is Parachlamydia acanthamoebae. Nature of the assay: Antimicrobial activity against Parachlamydia acanthamoebae infected in Acanthamoeba castellanii amoeba cells. The assay is classed as functional.
Assay [2] is described as follows: Antimicrobial activity against Waddlia chondrophila ATCC VR-1470 infected in Acanthamoeba castellanii amoeba cells. The assay is classed as functional, Waddlia chondrophila WSU 86-1044.
The nature of assay [3]: Antimicrobial activity against Waddlia chondrophila ATCC VR-1470 infected in Vero cells. In kind it is functional, Waddlia chondrophila WSU 86-1044.
A further assay concerns Chlamydia pneumoniae. As to the kind of experiment: Antimicrobial activity against Chlamydophila pneumoniae infected in Vero cells. The assay is classed as functional.
Another assay relates to Chlamydia trachomatis. As to the kind of experiment: Antimicrobial activity against Chlamydia trachomatis infected in Vero cells. The assay is classed as functional.
Assay [4] is described as follows: Antimicrobial activity against Waddlia chondrophila 2032/99 infected in Acanthamoeba castellanii amoeba cells. The assay is classed as functional.
Another assay relates to Chlamydophila psittaci. Nature of the assay: Antimicrobial activity against Chlamydophila psittaci infected in Vero cells. The settings on record: Chlamydia psittaci. The assay is classed as functional.

Structures are written as SMILES. Values after ≈ are worked out from the molar mass of the structure shown.

In assay [1], `CC1(C)S[C@@H]2[C@H](NC(=O)[C@H](N)c3ccc(O)cc3)C(=O)N2[C@H]1C(=O)O` [AMOXICILLIN] yielded a minimal inhibitory concentration (MIC) of more than 32 µg/mL.
Consider `CC1(C)S[C@@H]2[C@H](NC(=O)[C@H](N)c3ccccc3)C(=O)N2[C@H]1C(=O)O` [AMPICILLIN], for which the MIC was more than 32 µg/mL in assay [2], more than 32 µg/mL in assay [3] and more than 100 µg/mL in the assay on Chlamydia pneumoniae.
For the compound `CC[C@H]1OC(=O)[C@H](C)[C@@H](O[C@H]2C[C@@](C)(OC)[C@@H](O)[C@H](C)O2)[C@H](C)[C@@H](O[C@@H]2O[C@H](C)C[C@H](N(C)C)[C@H]2O)[C@](C)(O)C[C@@H](C)CN(C)[C@H](C)[C@@H](O)[C@]1(C)O` [AZITHROMYCIN], the minimal inhibitory concentration (MIC) in the assay on Chlamydia trachomatis was 0.125 µg/mL (≈ 0.167 µM); in assay [4], 0.06 µg/mL (≈ 0.0801 µM); in assay [2] it was 0.06 µg/mL (≈ 0.0801 µM); against Chlamydophila psittaci, 0.125 µg/mL (≈ 0.167 µM); in assay [3] it was 0.25 µg/mL (≈ 0.334 µM); in the assay with Chlamydia pneumoniae, 0.06 µg/mL (≈ 0.0801 µM).
With `CO/N=C(\C(=O)N[C@@H]1C(=O)N2C(C(=O)O)=C(CSc3nc(=O)c(O)nn3C)CS[C@H]12)c1csc(N)n1` [CEFTRIAXONE], the MIC (with Chlamydia trachomatis; in assay [2]; in assay [1]; in assay [3]) was more than 32 µg/mL in each case.
Turning to `O=C(O)c1cn(C2CC2)c2cc(N3CCNCC3)c(F)cc2c1=O` [CIPROFLOXACIN], the minimal inhibitory concentration (MIC) in the assay with Chlamydia trachomatis is 0.5 µg/mL (≈ 1.51 µM); in assay [2], more than 16 µg/mL; in the assay with Chlamydophila psittaci it was 1 µg/mL (≈ 3.02 µM); in assay [1], more than 16 µg/mL; in assay [3], more than 16 µg/mL; against Chlamydia pneumoniae it was 1 µg/mL (≈ 3.02 µM).
Take `C[C@H]1c2cccc(O)c2C(=O)C2=C(O)[C@]3(O)C(=O)C(C(N)=O)=C(O)[C@@H](N(C)C)[C@@H]3[C@@H](O)[C@@H]21.O` [DOXYCYCLINE]: the MIC came out at 0.03 µg/mL against Chlamydia trachomatis; 1 µg/mL in assay [4]; 4 µg/mL in assay [2]; 0.03 µg/mL against Chlamydophila psittaci; 0.5 µg/mL in assay [1]; 0.25 µg/mL in assay [3]. This compound also yielded an MIC in the assay on Chlamydia pneumoniae of 0.03 µg/mL.
Regarding `CC1COc2c(N3CCN(C)CC3)c(F)cc3c(=O)c(C(=O)O)cn1c23` (stereo not drawn) [OFLOXACIN], the MIC with Chlamydia trachomatis was 0.5 µg/mL (≈ 1.38 µM); in assay [2], more than 16 µg/mL; with Chlamydophila psittaci, 0.5 µg/mL (≈ 1.38 µM); in assay [1], more than 16 µg/mL; in assay [3], more than 16 µg/mL; against Chlamydia pneumoniae, 0.5 µg/mL (≈ 1.38 µM).
